Laboratory results taken from ChEMBL document CHEMBL3991601, “The target landscape of clinical kinase drugs” (Science, 2017).
Where a name gives a salt, the structure may show the parent alone. Activity calls are given as the source filed them.

Key:
[1] = molecular target: T1, Serine/threonine-protein kinase PLK4 (Homo sapiens, UniProt O00444)
T1 sequence (O00444 whole entry): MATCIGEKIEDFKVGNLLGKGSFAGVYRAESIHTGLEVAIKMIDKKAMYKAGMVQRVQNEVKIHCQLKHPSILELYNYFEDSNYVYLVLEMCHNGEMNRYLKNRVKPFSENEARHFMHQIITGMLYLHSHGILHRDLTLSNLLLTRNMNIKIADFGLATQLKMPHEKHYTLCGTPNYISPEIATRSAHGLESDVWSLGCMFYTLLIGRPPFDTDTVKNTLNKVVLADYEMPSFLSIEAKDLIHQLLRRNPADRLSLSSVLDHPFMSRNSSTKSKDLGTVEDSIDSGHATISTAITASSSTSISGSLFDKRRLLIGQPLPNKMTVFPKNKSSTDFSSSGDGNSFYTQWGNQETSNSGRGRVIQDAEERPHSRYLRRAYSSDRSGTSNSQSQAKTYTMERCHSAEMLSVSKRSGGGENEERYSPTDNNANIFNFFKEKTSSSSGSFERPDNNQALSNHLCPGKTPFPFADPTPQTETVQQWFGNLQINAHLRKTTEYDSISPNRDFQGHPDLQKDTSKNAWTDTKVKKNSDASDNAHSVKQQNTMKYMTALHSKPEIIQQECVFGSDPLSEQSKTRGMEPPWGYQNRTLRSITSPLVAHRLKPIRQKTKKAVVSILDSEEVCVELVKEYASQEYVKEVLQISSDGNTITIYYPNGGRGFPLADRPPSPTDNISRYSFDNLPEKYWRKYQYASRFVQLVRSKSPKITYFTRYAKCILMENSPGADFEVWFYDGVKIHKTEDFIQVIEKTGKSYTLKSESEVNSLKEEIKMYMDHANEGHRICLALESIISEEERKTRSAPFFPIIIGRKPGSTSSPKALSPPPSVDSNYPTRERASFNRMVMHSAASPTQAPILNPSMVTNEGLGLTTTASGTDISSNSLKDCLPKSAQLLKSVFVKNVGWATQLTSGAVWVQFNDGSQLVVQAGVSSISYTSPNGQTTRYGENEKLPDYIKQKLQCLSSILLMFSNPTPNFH

Ephrin type-A receptor 5 = Ephrin type-A receptor 5 (Homo sapiens, UniProt P54756)
[2] = molecular target: T2, Probable ATP-dependent RNA helicase DDX6 (Homo sapiens, UniProt P26196)
T2 sequence (P26196 whole entry): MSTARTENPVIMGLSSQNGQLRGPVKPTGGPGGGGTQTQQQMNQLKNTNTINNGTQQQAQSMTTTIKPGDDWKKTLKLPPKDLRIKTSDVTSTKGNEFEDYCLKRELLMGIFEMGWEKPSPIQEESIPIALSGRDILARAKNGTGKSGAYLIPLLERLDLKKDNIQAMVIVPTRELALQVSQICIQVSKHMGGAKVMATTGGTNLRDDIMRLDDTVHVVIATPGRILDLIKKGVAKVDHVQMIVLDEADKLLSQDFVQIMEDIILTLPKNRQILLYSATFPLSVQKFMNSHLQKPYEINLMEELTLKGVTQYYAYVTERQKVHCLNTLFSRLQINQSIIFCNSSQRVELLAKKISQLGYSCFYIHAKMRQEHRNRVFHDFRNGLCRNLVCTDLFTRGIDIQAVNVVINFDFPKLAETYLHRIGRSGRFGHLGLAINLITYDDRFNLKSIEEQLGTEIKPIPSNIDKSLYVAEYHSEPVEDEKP

DNA topoisomerase 2-beta = DNA topoisomerase 2-beta (Homo sapiens, UniProt Q02880)
[3] = molecular target: Serine/threonine-protein kinase MRCK beta (Homo sapiens, UniProt Q9Y5S2)
GTP-binding protein 4 = GTP-binding protein 4 (Homo sapiens, UniProt Q9BZE4)
[4] = molecular target: Atypical kinase COQ8A, mitochondrial (Homo sapiens, UniProt Q8NI60)
[5] = molecular target: Mitogen-activated protein kinase 9 (Homo sapiens, UniProt P45984)
Myosin-10 = Myosin-10 (Homo sapiens, UniProt P35580)
[6] = molecular target: BMP-2-inducible protein kinase (Homo sapiens, UniProt Q9NSY1)
[7] = molecular target: T3, Tyrosine--tRNA ligase, cytoplasmic (Homo sapiens, UniProt P54577)
T3 sequence (P54577 whole entry): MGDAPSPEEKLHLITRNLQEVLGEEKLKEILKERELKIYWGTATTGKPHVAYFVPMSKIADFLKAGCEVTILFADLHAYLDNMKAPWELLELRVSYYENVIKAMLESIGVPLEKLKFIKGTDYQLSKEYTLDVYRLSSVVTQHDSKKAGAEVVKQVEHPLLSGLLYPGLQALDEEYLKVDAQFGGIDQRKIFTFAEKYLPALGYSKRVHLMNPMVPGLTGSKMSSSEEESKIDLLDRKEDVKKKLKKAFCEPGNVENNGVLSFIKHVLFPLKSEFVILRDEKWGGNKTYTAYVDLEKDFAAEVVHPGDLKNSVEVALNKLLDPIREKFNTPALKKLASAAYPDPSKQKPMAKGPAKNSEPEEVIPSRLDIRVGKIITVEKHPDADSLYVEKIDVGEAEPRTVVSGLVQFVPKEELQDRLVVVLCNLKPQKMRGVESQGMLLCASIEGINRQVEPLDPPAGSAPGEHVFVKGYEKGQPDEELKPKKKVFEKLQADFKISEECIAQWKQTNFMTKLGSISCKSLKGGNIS

[8] = molecular target: T4, Serine/threonine-protein kinase ULK3 (Homo sapiens, UniProt Q6PHR2)
T4 sequence (Q6PHR2 whole entry): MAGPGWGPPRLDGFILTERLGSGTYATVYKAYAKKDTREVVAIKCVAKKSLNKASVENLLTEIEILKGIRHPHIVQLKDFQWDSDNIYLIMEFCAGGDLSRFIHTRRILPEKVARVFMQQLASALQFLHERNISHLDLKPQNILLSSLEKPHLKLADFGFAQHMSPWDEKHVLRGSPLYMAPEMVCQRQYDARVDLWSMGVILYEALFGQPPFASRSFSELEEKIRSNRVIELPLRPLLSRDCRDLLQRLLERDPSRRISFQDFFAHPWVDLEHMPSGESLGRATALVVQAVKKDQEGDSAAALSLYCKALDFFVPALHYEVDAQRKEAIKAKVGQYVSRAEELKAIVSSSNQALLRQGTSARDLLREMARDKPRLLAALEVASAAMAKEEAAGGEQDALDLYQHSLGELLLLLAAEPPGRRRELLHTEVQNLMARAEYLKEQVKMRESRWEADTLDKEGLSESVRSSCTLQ
Further: in the data inactive means no Kd found up to 30 µM.

Chain of DNA topoisomerase 2-beta (Q02880 whole entry): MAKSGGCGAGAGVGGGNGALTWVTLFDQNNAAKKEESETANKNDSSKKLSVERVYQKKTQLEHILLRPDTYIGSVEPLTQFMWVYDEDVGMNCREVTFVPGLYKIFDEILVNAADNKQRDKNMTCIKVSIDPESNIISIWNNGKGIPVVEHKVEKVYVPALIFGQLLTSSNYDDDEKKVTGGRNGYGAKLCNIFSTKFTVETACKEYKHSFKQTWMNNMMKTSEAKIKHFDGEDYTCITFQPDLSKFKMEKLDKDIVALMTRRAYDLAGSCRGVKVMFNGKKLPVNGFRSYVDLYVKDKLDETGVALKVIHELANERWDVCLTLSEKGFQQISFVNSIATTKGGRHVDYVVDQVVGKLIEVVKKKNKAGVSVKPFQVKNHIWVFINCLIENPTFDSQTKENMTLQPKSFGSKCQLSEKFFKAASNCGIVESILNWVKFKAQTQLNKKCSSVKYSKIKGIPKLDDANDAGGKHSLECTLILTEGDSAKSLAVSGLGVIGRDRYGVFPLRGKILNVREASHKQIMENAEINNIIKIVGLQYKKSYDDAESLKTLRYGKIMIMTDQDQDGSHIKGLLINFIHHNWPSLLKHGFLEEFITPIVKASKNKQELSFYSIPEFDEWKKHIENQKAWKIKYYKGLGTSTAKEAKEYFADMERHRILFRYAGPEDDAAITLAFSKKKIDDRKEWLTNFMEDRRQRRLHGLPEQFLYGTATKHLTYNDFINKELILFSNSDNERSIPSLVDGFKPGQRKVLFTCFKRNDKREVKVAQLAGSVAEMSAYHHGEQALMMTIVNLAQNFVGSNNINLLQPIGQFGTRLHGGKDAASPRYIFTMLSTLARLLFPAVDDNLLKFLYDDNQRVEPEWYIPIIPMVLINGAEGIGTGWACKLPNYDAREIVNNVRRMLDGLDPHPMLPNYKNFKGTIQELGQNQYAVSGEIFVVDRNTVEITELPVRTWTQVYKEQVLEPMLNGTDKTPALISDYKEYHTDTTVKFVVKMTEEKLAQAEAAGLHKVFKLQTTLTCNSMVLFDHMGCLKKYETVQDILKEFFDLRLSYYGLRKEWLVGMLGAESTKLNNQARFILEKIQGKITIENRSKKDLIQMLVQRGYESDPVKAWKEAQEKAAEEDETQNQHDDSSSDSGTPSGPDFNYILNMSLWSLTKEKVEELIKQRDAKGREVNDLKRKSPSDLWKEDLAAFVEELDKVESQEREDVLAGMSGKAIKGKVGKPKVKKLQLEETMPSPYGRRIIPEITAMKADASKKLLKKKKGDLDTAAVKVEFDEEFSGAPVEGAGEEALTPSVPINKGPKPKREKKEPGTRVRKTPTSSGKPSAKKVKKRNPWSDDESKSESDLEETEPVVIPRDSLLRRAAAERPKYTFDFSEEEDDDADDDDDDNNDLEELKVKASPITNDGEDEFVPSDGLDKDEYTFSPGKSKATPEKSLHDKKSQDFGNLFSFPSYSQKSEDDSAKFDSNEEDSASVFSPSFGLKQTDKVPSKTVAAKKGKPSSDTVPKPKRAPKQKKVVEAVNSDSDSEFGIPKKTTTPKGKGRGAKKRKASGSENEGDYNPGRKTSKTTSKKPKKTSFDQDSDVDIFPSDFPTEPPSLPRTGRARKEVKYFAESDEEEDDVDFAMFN
Chain of BMP-2-inducible protein kinase (Q9NSY1 whole entry): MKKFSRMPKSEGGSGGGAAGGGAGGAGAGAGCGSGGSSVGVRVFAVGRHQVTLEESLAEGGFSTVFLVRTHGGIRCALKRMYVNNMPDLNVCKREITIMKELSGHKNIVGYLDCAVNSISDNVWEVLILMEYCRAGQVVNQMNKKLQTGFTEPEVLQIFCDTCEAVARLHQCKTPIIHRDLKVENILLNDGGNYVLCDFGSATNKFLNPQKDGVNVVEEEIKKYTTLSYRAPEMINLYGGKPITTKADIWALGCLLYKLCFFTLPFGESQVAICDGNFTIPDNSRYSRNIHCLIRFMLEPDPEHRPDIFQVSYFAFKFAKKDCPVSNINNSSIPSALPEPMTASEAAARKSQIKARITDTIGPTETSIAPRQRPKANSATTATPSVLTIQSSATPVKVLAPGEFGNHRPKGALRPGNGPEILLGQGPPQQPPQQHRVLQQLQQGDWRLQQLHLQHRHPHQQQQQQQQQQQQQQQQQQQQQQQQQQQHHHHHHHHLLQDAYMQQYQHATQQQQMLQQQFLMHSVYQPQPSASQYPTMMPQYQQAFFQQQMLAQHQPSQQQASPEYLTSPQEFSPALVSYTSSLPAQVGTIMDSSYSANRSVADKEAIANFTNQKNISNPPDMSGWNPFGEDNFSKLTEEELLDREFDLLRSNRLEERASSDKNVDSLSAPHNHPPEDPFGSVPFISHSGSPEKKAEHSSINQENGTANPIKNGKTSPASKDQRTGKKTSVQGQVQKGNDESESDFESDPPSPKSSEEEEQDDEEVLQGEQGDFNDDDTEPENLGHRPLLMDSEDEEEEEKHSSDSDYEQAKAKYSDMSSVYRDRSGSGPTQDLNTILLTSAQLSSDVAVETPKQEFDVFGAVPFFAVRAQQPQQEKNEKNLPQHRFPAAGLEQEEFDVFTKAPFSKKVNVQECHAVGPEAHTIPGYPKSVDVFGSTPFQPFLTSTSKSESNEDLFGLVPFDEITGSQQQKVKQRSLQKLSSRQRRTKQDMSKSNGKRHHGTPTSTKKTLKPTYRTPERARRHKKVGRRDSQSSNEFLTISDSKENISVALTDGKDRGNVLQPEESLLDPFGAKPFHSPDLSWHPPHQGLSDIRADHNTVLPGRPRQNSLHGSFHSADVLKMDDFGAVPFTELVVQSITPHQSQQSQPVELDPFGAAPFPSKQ
Chain of Myosin-10 (P35580 whole entry): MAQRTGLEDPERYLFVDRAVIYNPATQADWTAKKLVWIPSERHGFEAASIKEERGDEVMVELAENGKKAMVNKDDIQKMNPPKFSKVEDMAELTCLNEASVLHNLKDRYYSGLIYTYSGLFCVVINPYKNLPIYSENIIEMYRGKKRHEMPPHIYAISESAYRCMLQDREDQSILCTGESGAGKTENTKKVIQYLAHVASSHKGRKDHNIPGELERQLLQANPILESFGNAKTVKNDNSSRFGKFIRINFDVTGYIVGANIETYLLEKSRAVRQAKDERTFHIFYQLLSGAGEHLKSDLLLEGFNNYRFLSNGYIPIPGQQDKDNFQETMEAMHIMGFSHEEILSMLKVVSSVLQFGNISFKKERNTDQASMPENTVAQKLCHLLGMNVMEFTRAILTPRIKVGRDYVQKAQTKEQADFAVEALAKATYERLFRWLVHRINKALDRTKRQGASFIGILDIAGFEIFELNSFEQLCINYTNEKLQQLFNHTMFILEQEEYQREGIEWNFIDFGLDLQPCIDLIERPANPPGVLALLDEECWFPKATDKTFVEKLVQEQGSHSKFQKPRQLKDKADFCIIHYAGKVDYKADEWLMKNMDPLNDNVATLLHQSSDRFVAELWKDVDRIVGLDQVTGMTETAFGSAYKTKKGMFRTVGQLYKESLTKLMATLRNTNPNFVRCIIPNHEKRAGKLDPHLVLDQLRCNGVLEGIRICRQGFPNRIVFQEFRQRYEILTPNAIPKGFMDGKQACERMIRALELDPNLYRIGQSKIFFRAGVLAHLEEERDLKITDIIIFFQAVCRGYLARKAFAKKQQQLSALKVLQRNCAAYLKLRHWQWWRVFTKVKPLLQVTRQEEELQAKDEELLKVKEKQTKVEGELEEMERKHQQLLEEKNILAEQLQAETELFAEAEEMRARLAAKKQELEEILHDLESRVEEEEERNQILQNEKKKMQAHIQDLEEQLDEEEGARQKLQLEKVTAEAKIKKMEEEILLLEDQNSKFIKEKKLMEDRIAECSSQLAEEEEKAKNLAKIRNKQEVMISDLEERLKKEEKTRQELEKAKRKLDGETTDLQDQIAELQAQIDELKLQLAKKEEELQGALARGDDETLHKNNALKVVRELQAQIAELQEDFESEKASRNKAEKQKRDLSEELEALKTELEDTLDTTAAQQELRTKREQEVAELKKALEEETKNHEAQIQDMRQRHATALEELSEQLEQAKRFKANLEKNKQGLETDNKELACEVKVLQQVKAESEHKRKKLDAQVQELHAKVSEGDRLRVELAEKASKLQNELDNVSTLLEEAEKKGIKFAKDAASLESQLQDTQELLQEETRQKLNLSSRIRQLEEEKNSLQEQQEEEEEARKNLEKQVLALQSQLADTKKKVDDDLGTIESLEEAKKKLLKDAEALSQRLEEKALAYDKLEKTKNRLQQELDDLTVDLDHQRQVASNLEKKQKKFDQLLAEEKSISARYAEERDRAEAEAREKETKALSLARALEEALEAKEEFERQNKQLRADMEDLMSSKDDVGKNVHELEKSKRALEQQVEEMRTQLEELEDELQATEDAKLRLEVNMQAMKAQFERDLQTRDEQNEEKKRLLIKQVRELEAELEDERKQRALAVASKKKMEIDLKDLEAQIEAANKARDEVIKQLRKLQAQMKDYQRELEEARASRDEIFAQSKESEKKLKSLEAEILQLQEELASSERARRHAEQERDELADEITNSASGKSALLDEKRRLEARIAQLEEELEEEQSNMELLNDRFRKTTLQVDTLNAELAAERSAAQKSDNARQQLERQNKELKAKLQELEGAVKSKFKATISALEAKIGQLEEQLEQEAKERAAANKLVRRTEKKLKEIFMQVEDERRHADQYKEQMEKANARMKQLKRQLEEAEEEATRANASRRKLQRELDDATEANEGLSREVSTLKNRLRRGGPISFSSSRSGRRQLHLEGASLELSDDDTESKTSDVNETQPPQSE

SMILES | Kd [1] | Kd (Ephrin type-A receptor 5) | Kd [2] | Kd (DNA topoisomerase 2-beta) | Kd [3] | Kd (GTP-binding protein 4) | Kd [4] | Kd [5] | Kd (Myosin-10) | Kd [6] | Kd [7] | Kd [8]
C=CC(=O)N1CCC[C@H](n2c(=O)n(-c3ccc(Oc4ccccc4)cc3)c3c(N)ncnc32)C1 | > 30 µM (inactive) | > 30 µM (inactive) | > 30 µM (inactive) | > 30 µM (inactive) | > 30 µM (inactive) | > 30 µM (inactive) | > 30 µM (inactive) | > 30 µM (inactive) | > 30 µM (inactive) | > 30 µM (inactive) | > 30 µM (inactive) | > 30 µM (inactive)
Cc1nc2cc(-c3nn(C(C)C)c4ncnc(N)c34)ccc2o1 | > 30 µM (inactive) | > 30 µM (inactive) | > 30 µM (inactive) | > 30 µM (inactive) | > 30 µM (inactive) | > 30 µM (inactive) | > 30 µM (inactive) | > 30 µM (inactive) | > 30 µM (inactive) | > 30 µM (inactive) | > 30 µM (inactive) | > 30 µM (inactive)
COCc1c(-c2ccc(NC(=O)Nc3cc(C(F)(F)F)ccc3F)c(F)c2)c2c(N)ncnn2c1CN1CCOCC1 | > 30 µM (inactive) | > 30 µM (inactive) | > 30 µM (inactive) | > 30 µM (inactive) | > 30 µM (inactive) | > 30 µM (inactive) | > 30 µM (inactive) | 1.51 µM (active) | > 30 µM (inactive) | > 30 µM (inactive) | > 30 µM (inactive) | > 30 µM (inactive)
Cc1csc(-c2nnc(Nc3ccc(Oc4ncccc4-c4ccnc(N)n4)cc3)c3ccccc23)c1 [AMG-900] | > 30 µM (inactive) | > 30 µM (inactive) | > 30 µM (inactive) | 2.6 µM | > 30 µM (inactive) | > 30 µM (inactive) | > 30 µM (inactive) | > 30 µM (inactive) | > 30 µM (inactive) | > 30 µM (inactive) | > 30 µM (inactive) | > 30 µM (inactive)
O=C(Nc1c[nH]nc1-c1nc2cc(CN3CCOCC3)ccc2[nH]1)NC1CC1 [AT-9283] | 0.021 µM (active) | > 30 µM (inactive) | > 30 µM (inactive) | > 30 µM (inactive) | > 30 µM (inactive) | > 30 µM (inactive) | > 30 µM (inactive) | 0.509 µM (active) | > 30 µM (inactive) |  | > 30 µM (inactive) | 
COc1cc([C@@H]2c3cc4c(cc3[C@H](O)[C@H]3COC(=O)[C@@H]23)OCO4)cc(OC)c1OC [AXL-1717] | > 30 µM (inactive) | > 30 µM (inactive) | > 30 µM (inactive) | > 30 µM (inactive) | > 30 µM (inactive) | > 30 µM (inactive) | > 30 µM (inactive) | > 30 µM (inactive) | > 30 µM (inactive) | > 30 µM (inactive) | > 30 µM (inactive) | > 30 µM (inactive)
NC(=O)Nc1cc(-c2cccc(F)c2)sc1C(=O)N[C@H]1CCCNC1 [AZD-7762] | 0.722 µM (active) | > 30 µM (inactive) | > 30 µM (inactive) | > 30 µM (inactive) | > 30 µM (inactive) | > 30 µM (inactive) | > 30 µM (inactive) | > 30 µM (inactive) | > 30 µM (inactive) | 0.181 µM (active) | > 30 µM (inactive) | 1.79 µM (active)
CCS(=O)(=O)N1CCN(c2ccc(Nc3ncc(C(N)=O)c(NC4CC4)n3)cc2)CC1 [Cerdulatinib Hydrochloride] | > 30 µM (inactive) | > 30 µM (inactive) | > 30 µM (inactive) | > 30 µM (inactive) | > 30 µM (inactive) | > 30 µM (inactive) | > 30 µM (inactive) | 1.43 µM (active) | > 30 µM (inactive) | 0.0008 µM (active) |  | 0.655 µM (active)
CCOc1cc2ncc(C#N)c(Nc3ccc(F)c(Cl)c3)c2cc1NC(=O)/C=C/CN(C)C [PELITINIB] | > 30 µM (inactive) | > 30 µM (inactive) | > 30 µM (inactive) | > 30 µM (inactive) | > 30 µM (inactive) | > 30 µM (inactive) | > 30 µM (inactive) | > 30 µM (inactive) | > 30 µM (inactive) |  | > 30 µM (inactive) | > 30 µM (inactive)
CN1CCN(CCOc2cc(OC3CCOCC3)c3c(Nc4c(Cl)ccc5c4OCO5)ncnc3c2)CC1 [SARACATINIB] | > 30 µM (inactive) | 2.38 µM (active) | > 30 µM (inactive) | > 30 µM (inactive) | > 30 µM (inactive) |  | 0.275 µM (active) | > 30 µM (inactive) | > 30 µM (inactive) | > 30 µM (inactive) | > 30 µM (inactive) | > 30 µM (inactive)
CCS(=O)(=O)c1cccc(-c2cc(C(=O)NC3CCN(C)CC3)c(C)c3[nH]c4ncc(C)cc4c23)c1 [TAK-901] | 0.041 µM (active) | 0.508 µM (active) | > 30 µM (inactive) | > 30 µM (inactive) | > 30 µM (inactive) |  | > 30 µM (inactive) | > 30 µM (inactive) | > 30 µM (inactive) | 0.695 µM (active) | > 30 µM (inactive) | > 30 µM (inactive)
C[C@@H](NC(=O)c1ncnc(N)c1Cl)c1ncc(C(=O)Nc2cc(C(F)(F)F)c(Cl)cn2)s1 [TOVORAFENIB] | > 30 µM (inactive) | > 30 µM (inactive) |  | > 30 µM (inactive) | > 30 µM (inactive) | > 30 µM (inactive) | > 30 µM (inactive) | > 30 µM (inactive) | > 30 µM (inactive) | > 30 µM (inactive) | > 30 µM (inactive) | > 30 µM (inactive)
